Measured values published in EP0811378A1, “PREVENTIVE/REMEDY FOR INTERSTITIAL PNEUMONIA, INFLAMMATORY INTESTINAL DISEASES OR VASCULAR THICKENING CONTAINING QUINOLIZINONE COMPOUNDS, SALT THEREOF OR HYDRATES THEREFOR” (priority 1995, dated 1996).
Structures can show the parent of a compound that is named as a salt.

Legend:
[1] = test system: bleomycin-induced pulmonary fibrosis; experiment: Efficacy in a mouse model of bleomycin-induced pulmonary fibrosis; assay type: in vivo, ICR mice; conditions: 1 mg/kg orally twice a day, day 28
Procedure: ICR mice (12 weeks old, male gender) were intravenously dosed with bleomycin (10 mg/kg) daily for 10 days. Test compound 1 was suspended in 0.5% methylcellulose solution and administered orally twice a day beginning the first day of bleomycin treatment till the day immediately preceding sacrifice. A control group received 0.5% methylcellulose solution in the like manner. Twenty-eight (28) days reckoning from administration of the initial dose of bleomycin, the mice were sacrificed, the lungs were isolated, and the lung hydroxyproline content was determined in accordance with Woessner's method. Histopathological specimens were also prepared at the same time and the degree of fibrotic change was evaluated after Azan-Mallory staining.

[2] = test system: silica-induced pulmonary fibrosis; experiment: Efficacy in a mouse model of silica-induced pulmonary fibrosis; assay type: in vivo, C57BL/6 mice; conditions: for Hydroxyproline content: lungs isolated 16 days after silica, Mean ± SE
Procedure: Using C57BL/6 mice (8 weeks old, male gender), the neck was incised under pentobarbital anesthesia and silica (2 mg/0.1 ml/animal) was administered intra-tracheally. A sham operated intact group received physiological saline in the same manner. The drug was orally administered daily beginning the day of silica treatment till the day immediately preceding sacrifice. Thus, test compound 1 and tranilast were respectively administered once after silica treatment and twice daily on the next and subsequent days, in morning and evening. In the sham operated and control groups, 0.5% methylcellulose was similarly administered. Sixteen (16) days after sensitization, the mice were bled to death under pentobarbital anesthesia and the lungs were isolated. The hydroxyproline content of the isolated lungs was assayed and used as an indicator of pulmonary fibrosis. The difference in mean value between the control group and the treatment group or the sham operated group was tested by one-way analysis of variance and Dunnett multiple-comparison test.

[3] = test system: acetic acid-induced colitis; experiment: Efficacy in a rat model of acetic acid-induced colitis; assay type: in vivo, SD rats; conditions: po, inhibition of lesion score, read-out: Degree of inhibition
Procedure: Male SD rats (7-8 weeks old) were deprived of food for 24 hours and a suspension of test compound 2 in 0.5% methylcellulose solution was administered orally. Thirty (30) minutes later, 1 ml/rat of 4% acetic acid in saline was infused from the anus under ether anesthesia. An intact group received a saline infusion. The infusion was carried out over 20 seconds. Then, the animal was held in inverted upright position for 30 seconds, after which 2 ml of phosphate buffer solution was infused for washout. Twenty-four (24) hours later, the animal was sacrificed by carbon dioxide inhalation, the large intestine was isolated, and the local lesion was scored according to the following criteria. Lesion score 0. No lesion 1. Hyperemia without ulceration 2. Inflammation (hyperemia and thickening of the bowel wall) or ulceration without definite inflammation 3. Ulceration with inflammation at 1 site 4. Ulceration with inflammation at 2 or more sites 5. A large ulcer sized 1 cm or more 6-10. An ulcer sized 2 cm or more; 1 point added for each increment of 1 cm

[4] = Oral acute toxicity in rats; assay type: in vivo

O=C(Nc1nnn[nH]1)c1cc(Oc2ccccc2)c2ccccn2c1=O [Test compound 1, N-[5-(1H-tetrazolyl)]-1-phenoxy-4H-quinolizin-4-one-3-carboxamide sodium salt]
Histopathological examination, degree of fibrotic change ([1]; Azan-Mallory staining): definite inhibition of pulmonary fibrosis
inhibition at 1 mg/kg ([1]; Mus musculus, po, 672 h, inhibition of lung hydroxyproline content, read-out: Degree of inhibition): 88.6%
Hydroxyproline content ([2]; 1 mg/kg orally twice daily, n=10): **144.41±9.69 µg/lung
inhibition at 1 mg/kg ([2]; Mus musculus, po, 384 h, inhibition of lung hydroxyproline content, 1 mg/kg orally twice daily, day 16, read-out: Degree of inhibition): 88.7%

O=C(Nc1nnn[nH]1)c1cc(Oc2ccccc2)c2ccccn2c1=O [Test compound 2, N-[5-(1H-tetrazolyl)]-1-phenoxy-4H-quinolizin-4-one-3-carboxamide sodium salt monohydrate]
inhibition at 1 mg/kg ([3]; 1 mg/kg orally): 38.3%
inhibition at 10 mg/kg ([3]; 10 mg/kg orally): 68.1%
oral acute toxicity LD50 ([4]; female gender): ≥ 5 g/kg/day
oral acute toxicity LD50 ([4]; male gender): 4.5 g/kg/day

COc1ccc(/C=C/C(=O)Nc2ccccc2C(=O)O)cc1OC [Tranilast, reference compound]
Hydroxyproline content ([2]; 100 mg/kg orally twice daily, n=9): 224.66±18.44 µg/lung
inhibition at 100 mg/kg ([2]; Mus musculus, po, 384 h, inhibition of lung hydroxyproline content, 100 mg/kg orally twice daily, day 16, read-out: Degree of inhibition): 13.6%
